Consider six compounds from patent US20010039041A1, “Immunosuppressive sesbanimide compositions and methods of treatment using same” (priority 1995, published 2001).

In general, IC50 refers to the concentration that gives 50% inhibition. In general, LD50 refers to the dose expected to kill half of the subjects tested. A lower LD50 goes with a more toxic substance.

Data set [1] relates to Agrobacterium species strain PH-103. As to the kind of experiment: Antibiotic sensitivity (Difco sensitivity discs). It is filed as cell-based, Agrobacterium sp. As to conditions: strain PH-103, ATCC 231 basal medium, 27° C. As to the method: The culture was incubated at 27° C. and records of the results were made after suitable incubation times. All media were prepared with 2.7% Instant Ocean Salts and pH was approximately neutral (7-7.4). The description of the culture and test results are as follows: […]

Data set [2] concerns mixed lymphocytes from Balb/c (H-2d) and C57BI/6 (H-2b) mice. As to the kind of experiment: Murine Mixed Lymphocyte Reaction (MLR), 3H-thymidine incorporation. It is filed as cell-based. The conditions noted are these: for IC50: Mus musculus, Lymphocyte; for Index Cytotox./Activity: ratio LcV IC50 / MLR IC50. How it is done:
Mixed Lymphocyte Reaction (MLR)
The MLR is an in vitro test of cellular immunity in which murine lymphocytes from genetically dissimilar animals are cocultured to mutually induce cell proliferation (i.e., two-way MLR method). Mixed cell suspensions, together with the test compound, are incubated for 96 hours and subsequently pulsed for 15 hours with tritiated-thymidine (3H-Thy), a radioisotopically labelled nucleic acid. Tritiated-thymidine is incorporated into the DNA of proliferating cells. Data from the MLR is generated as dpm of radioactivity which is then expressed as a percentage of cellular activity, relative to control, using the following reduced formula: [formula]
A 50% inhibitory concentration (IC50) value was interpolated for sesbanimide containing fractions tested. A ratio between cytotoxicity, as determined from the LcV described below, and activity in the MLR is also presented. A high ratio distinguishes noncytotoxic immunosuppression from general cytotoxicity.
Reconstituted extract (10 μl) is added in two sets of duplicates into wells of a 96-well microtiter plate and evaporated to dryness at room temperature. […] To the other set of sample duplicates is added complete media without cells so as to provide for background color control data. All plated are incubated in a 5% CO2 incubator for 96 hours and pulsed for 15 hours with 100 μl containing 1 μCi/well tritiated-thymidine (^3H-Thy). The plates are harvested onto glass fiber filter discs using an INOTECH harvester. The filter discs are counted directly using an INOTECH dry scintillation counter. The activity of the discs are calculated as a relative proliferative percent of a mean control value as described above.
For orientation: Dividing cells build labelled thymidine or BrdU into new DNA.

Data set [3] in a line: Lymphocyte Viability / Cytotoxicity Assay (LcV), MTT. The data set is classed as cell-based, murine. The conditions noted are these: Balb/c, mouse, murine lymphocytes (Balb/c); text summary of Table 4. How it is done: (§1) Lymphocyte Cytotoxicity (LcV) Assay
(§2) The LCV is a in vitro cytotoxicity assay for murine lymphocytes designed by the investigator. The LCV is similar to the MLR with the exception that only one cell population (Balb/c) is incubated with the test compound to assess cytotoxicity as distinct from the antiproliferative effects of a test compound. That is, unlike the unambiguous determination of immunostimulation from MLR data, a judgement of immunosuppression can not be immediately interpreted. Cytotoxicity (e.g., due to direct cell lysis) from a compound can occur which would alter viability determinations inherent in the generation of MLR data. […] The percent viable cells is determined by the MTT-thiazolyl blue method after a similar incubation to the MLR of lymphocytes with the test sample. MTT is a substrate converted by mitochoridrial enzymes in living cells to a purple, water-insoluble, formazan crystal. If there is no significant reduction in cell viability, as determined by this detection method, then damaged cells are probably not present for low data values generated in the MLR. Colorimetric data from the LCV is calculated as a percentage of viability, relative to control, using the following formula: [formula]
(§3) A 50% viability, or 50% cytotoxicity, (IC50) value was interpolated for sesbanimide containing fractions tested.
(§4) Lymphocytes are prepared as described above for the MLR with the exception that cells from only one murine strain are prepared (BLAB/c). Reconstituted extract (10 μl) is added in two sets of duplicates into wells of a 96-well microtiter plate and evaporated to dryness at room temperature. Lymphocytes (2.5×10^6 cells/ml) are added to one set of duplicates and to wells containing no sample. Media containing no cells are added to the other set of duplicates to provide background color control data. Plated are incubated in a 5% CO2 incubator for 4 hours and pulsed with MTT-thiazolyl blue for 6-8 hours.

Data set [4] deals with murine lymphocytes (Balb/c). Described as above. It is filed as cell-based. As to conditions: Balb/c lymphocytes, MTT viability (cytotoxicity). As to the method: as §1, §2, §3, §4
Data set [5] can be described thus: Toxicology (MTD, LD50) in mice. As to conditions: mouse, in vivo; CD-1 or CB6F1 mice. It is filed as in vivo, mouse. As to the method:
(§5) The MTD establishes the parameters to establish in vivo dosages initiated for studying the Graft-v-Host reaction and skin grafting. The Swiss conventional mouse (Charles River CD-1) is used in a weight range from 18-30 g.
(§6) A saline solution containing 5% non-denatured EtOH and a drop of Tween-80 detergent is used a vehicle for dilution. Stirring and sonication are utilized to effect solution or suspension of the composition. The composition is injected within one hour of preparation. Animals are observed for five days (MTD) after injection for toxic symptoms and/or death. Group weights are taken D0 and D5. Surviving animals are sacrificed on D5 (MTD). A ‘Daily Logsheet’ used in the toxicity studies is appended.

The next data set has as its system CD-1 or CB6F1 Mice. As to the kind of experiment: Toxicology (MTD, LD50) in mice. It is filed as in vivo, mouse. How it is done: as §5, §6
For data set [6], the system named is CB6-F1 mice grafted with Balb/c splenic lymphocytes. As to conditions: for Alive Day 8 / Optimal Dose: GVHR; for Alive Day 8 / Index: at optimal dose; for Optimal Dose: i.p. per diem for 7 days; for Index: spleen index vs syngeneic control, >1.3 = successful graft rejection. An excerpt: Graft-vs-Host Reaction (GVHR)
The GVHR used for in vivo screening is a modification of the Simonsen's technique. The F1 hybrid host animal is grafted with immunocompetent spleens cells from a parent strain. The host spleen cells are incompatible to grafted donor cells but are themselves not competent to react against them (shared parental genetic determinants). The rejection mechanism in this model is, therefore, from the graft toward the host. The grafted cells, via intraperitoneal injection, migrate to the host's spleen. There they proliferate in response to the difference in genetic determinants inherited from the other parental strain. The index used to measure the success of the GVHR is spleenomegally (increased spleen weight due to cellular proliferation of grafted lymphocytes). An index of 1.0 is equivalent to the spleen weight of syngeneic grafted controls. An index >1.3 (graft index) is considered to be a successful graft rejection of the recipient animal. Any sample that prevents spienomegaly (<graft index) is considered as an immunosuppressive active. Likewise, enhancement of splenomegaly (>graft index) is due either to immunostimulatory synergy of the response or nonspecific immunostimulation. This assay is a cell-mediated type of response and is the direct in vivo correlate of the MLR.
The GVHR is widely used as an in vivo model in transplantation research laboratories. As in models for delayed sensitivity and allograft rejection, it also has clinical implications, especially in bone marrow transplantation. In this situation, immunocompetent lymphocytes transferred with the transplanted bone marrow cells can recirculate into the host bone marrow. These cells from the graft can react against the host (i.e., graft-vs-host disease) with deleterious consequences.
The highest test dose is selected from a previously determined maximum tolerated dose (MTD) resulting from a once only intraperitoneal (i.p.) injection of two animals/dose (e.g., 400, 100, 40 and 10 mg/kg) These animals are followed for five days to allow for possible toxic side effects of the test compound.
In the GVHR, male, CB6-F1 mice (H2^d+H2^b) are grafted by i.p. injection of 50×106 Balb/c (H2^d) splenic lymphocytes conditioned in high-glucose (4500 mg/L) Dulbecco's modified Eagles medium. […] Grafted positive controls, nongrafted negative controls and syngeneic grafted animals all receive vehicle i.p. injections during this time. A standard of cyclophosphamide (200 mg/kg) is used. Experimental animals are sacrificed on D8 and spleens removed. The data is reported as a spleen index compared to the weight of the syngeneic control spleen—both corrected for the total body weights of the animals. In addition, the spleens are homogenized and the lymphocytes enumerated and viabilities determined. The data from both determinations are also expressed as a percent immunomodulation of the positive controls. all data is corrected for nonspecific effects measured from nongrafted animals. Moribund animals are sacrificed immediately.

≈ marks a conversion by molar mass, not a printed value. Where “and” joins values, the source holds several entries; their conditions need not be identical. Equal values may be shown once. Read-outs that look alike come from different tables or passages of the source.

As for `CN[C@H](CC(C)C)C(=O)N[C@H]1C(=O)N[C@@H](CC(N)=O)C(=O)N[C@H]2C(=O)N[C@H]3C(=O)N[C@H](C(=O)N[C@H](C(=O)O)c4cc(O)cc(O)c4-c4cc3ccc4O)[C@H](O)c3ccc(c(Cl)c3)Oc3cc2cc(c3O[C@@H]2O[C@H](CO)[C@@H](O)[C@H](O)[C@H]2O[C@H]2C[C@](C)(N)[C@H](O)[C@H](C)O2)Oc2ccc(cc2Cl)[C@H]1O` [vancomycin], in data set [1], the Antibiotic sensitivity entry is reported as “resistant”.

As for `C=C1COC(O)(C2OCOC(C3CC(=O)NC(=O)C3)C2O)C1C` (stereo not drawn) [Sesbanimide, sesbanimide], the “separation of cytotoxicity to biological activity” value in data set [2] (LcV vs MLR) is greater than 3 log. Moreover, the half-inhibitory concentration (IC50) in data set [2] (in vitro cell-mediated immune response, text summary of Table 4, read-out: biological activity IC50) was 0.15 to 3.6 ng/mL (≈ 0.000458 to 0.011 µM). The IC50 in data set [2] (murine two-way MLR, 96 h incubation, 15 h 3H-Thy pulse, read-out: MLR IC50) was found to be 0.15 ng/mL (≈ 0.000458 µM). Moreover, the “Index Cytotox./Activity” value in data set [2] was 2,777. Further, the IC50 at 4 h in data set [3] lay in the range of 0.417 to 3.6 µg/mL (≈ 1.27 to 11 µM). For the same compound, the concentration for half-maximal inhibition (IC50) in data set [4] (Mus musculus, Lymphocyte) turned out to be 0.417 µg/mL (≈ 1.27 µM). Besides, the 50% lethal dose (LD50) at 7 days in data set [5] turned out to be 0.805 mg/kg. Further, in the data set with CD-1 or CB6F1 Mice (CD-1 or CB6F1 mice), the “Maximum Tolerated” value was determined as 0.56 mg/kg. The “Alive Day 5” value in the data set on CD-1 or CB6F1 Mice (at maximum tolerated dose, CD-1 or CB6F1 mice) is recorded as 100%. For the same compound, the LD50 determination with CD-1 or CB6F1 Mice (between 1.05 and 0.56 mg/kg/total dose, QD 1-7 experiment in CB6F1 mice) is reported as 0.805 mg/kg/total dose. Besides, the toxicity result in the data set on CD-1 or CB6F1 Mice (pure compound at 56, 10.5 and 5.6 mg/kg) is recorded as “toxic”. Moreover, the “total dose showing no toxicity” value in the data set on CD-1 or CB6F1 Mice (pure compound, in vivo) was no more than 0.56 mg/kg. In data set [6], the “Alive Day 8” value is 40%, the “Optimal Dose” value is 0.2 mg/kg and the Index amounted to 0.92.

With `O=P1(N(CCCl)CCCl)NCCCO1` (stereo not drawn) [Cyclophosphamide, cyclophosphamide], in data set [6], the “Alive Day 8” value was 100% and 60%; the “Optimal Dose” value is 200.0 mg/kg; the Index is 0.23 and 0.28.

Turning to polymyxin, the Antibiotic sensitivity entry in data set [1] was “resistant”.

Consider sesbanimide, for which the “MLR IC50” value in data set [2] (murine two-way MLR, 96 h incubation, 15 h 3H-Thy pulse) is less than 7.5 ng/mL. Also, in data set [2], the “Index Cytotox./Activity” value is reported as >1,746. Moreover, the “LcV IC50” value in data set [4] turned out to be 13.100 µg/mL.

In the case of `CCn1cc(C(=O)O)c(=O)c2ccc(C)nc21` [nalidixic acid], the Antibiotic sensitivity entry in data set [1] is recorded as “Sensitive”.
